Reference: US11098032B2, “Pyran dervatives as CYP11A1 (cytochrome P450 monooxygenase 11A1) inhibitors” (ORION CORPORATION, priority 2016, dated 2021)

Target: T1, CYP11A1 (Homo sapiens, UniProt P05108)
T1 construct: human H295R adrenocortical carcinoma cell line was used as source of enzyme; endogenous in cells; host or cells: H295R human adrenocortical carcinoma cells
T1 sequence (P05108 40-521): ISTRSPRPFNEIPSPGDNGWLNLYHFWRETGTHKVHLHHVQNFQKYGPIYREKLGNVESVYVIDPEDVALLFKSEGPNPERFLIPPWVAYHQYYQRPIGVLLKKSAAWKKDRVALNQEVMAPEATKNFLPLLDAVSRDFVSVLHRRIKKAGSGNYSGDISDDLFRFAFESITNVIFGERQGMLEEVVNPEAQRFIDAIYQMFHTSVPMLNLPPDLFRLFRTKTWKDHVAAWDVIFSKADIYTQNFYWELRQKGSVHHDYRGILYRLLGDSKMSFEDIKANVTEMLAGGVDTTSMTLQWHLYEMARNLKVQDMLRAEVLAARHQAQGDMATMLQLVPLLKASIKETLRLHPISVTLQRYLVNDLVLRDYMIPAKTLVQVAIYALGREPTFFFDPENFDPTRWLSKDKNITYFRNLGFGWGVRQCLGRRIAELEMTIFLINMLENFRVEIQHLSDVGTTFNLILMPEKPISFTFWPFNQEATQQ
Experiment: CYP11A1 inhibition: modified isocaproic acid release assay (IARA) in H295R cells
Format: cell-based
Settings: human H295R adrenocortical carcinoma cells treated three days, 3 nM [24,25-3H]-labelled cholesterol, 1% DMSO, 10 concentrations in duplicates; read-out: IC50 of the test compounds on CYP11A1 inhibition
Summary of the method: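 Cholesterol side-chain cleavage followed as tritiated isocaproic acid in charcoal-extracted medium, counted by scintillation. Substrate was 3 nM [24,25-3H]-cholesterol on human H295R cells exposed for three days to ten compound concentrations (duplicates, 1% DMSO); IC50 derived.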

IC50 | SMILES
301 to 2000 nM | CS(=O)(=O)N1CCC(COc2coc(C[N+]3([O-])Cc4ccc(C(F)(F)F)cc4C3)cc2=O)CC1 (centres unmarked) [Compound 290, 2-((5-((1-(Methylsulfonyl)piperidin-4-yl)methoxy)-4-oxo-4H-pyran-2-yl)methyl)-5-(trifluoromethyl)isoindoline 2-oxide]
150 to 300 nM | CS(=O)(=O)N1C=CC(COc2coc(CN3Cc4ccc(C(F)(F)F)cc4C3)cc2=O)CC1 (centres unmarked) [Compound 291, 5-((1-(Methylsulfonyl)-1,2,3,4-tetrahydropyridin-4-yl)methoxy)-2-((5-(trifluoro-methyl)isoindolin-2-yl)methyl)-4H-pyran-4-one]
